From patent US7091220B2, “Substituted indole Mannich bases” (Gruenenthal GmbH, priority 1999, dated 2006)

The molecules below were run on α2-subtype of the human α-adrenergic receptor (assay: SPA test, affinity for the α2-subtype of the human α-adrenergic receptor). Settings: not given.
Type: binding
Protocol: Wide-ranging testing of the indole Mannich bases according to the invention for their activity was carried out by the conventional high throughput screening methods, such as are described in John P. Devlin, High Throughput Screening, 1997, Marcel Dekker Inc. They are introduced here as a reference and are therefore part of the disclosure.
The action of the indole Mannich bases according to the invention is determined in particular by the affinity for the N-methyl-D-aspartate (NMDA) receptor family, for (α-adrenergic receptors and opioid receptors.
The compounds of the general formula 1 according to the invention investigated are suitable as ligands for the α2-subtype of the human α-adrenergic receptor, which is of importance for pain sensation.
The affinity of the compounds according to the invention for this α2-subtype of the α-adrenergic receptor has been determined with the aid of the SPA test such as is described in John P. Devlin, High Throughput Screening, Marcel Dekker Inc. 1997, pages 307 to 316. This literature is introduced herewith as a reference and is therefore part of the disclosure. The affinities of the compounds according to the invention were in each case determined at a concentration of 10 μM.

Q: With `CN(C)C(c1cccc(Cl)c1Cl)c1cn(C)c2ccccc12` (centres unmarked) [Example 70, [(2,3-Dichloro-phenyl)-(1-methyl-1H-indol-3-yl)-methyl]-dimethyl-amine] as the molecule, how does the “% Inhibition of α2 (humans), 10 μM” value read?
A: The value was 63%.

Q: For `CN(C)C(c1ccc(Cl)cc1Cl)c1cn(C)c2ccccc12` (centres unmarked) [Example 71, [(2,4-Dichloro-phenyl)-(1-methyl-1H-indol-3-yl)-methyl]-dimethyl-amine], which “% Inhibition of α2 (humans), 10 μM” value is on record?
A: Its value is 50%.

These molecules were tested on phenylquinone-induced writhing in mice (assay: Analgesia test: phenylquinone-induced writhing in mice). Settings: male NMRI mice; standard dose 10 mg/kg intravenous, 10 minutes before phenylquinone intraperitoneally; counted 5–20 minutes.
Type: in vivo
Protocol: The in-depth investigation of the compounds according to the invention for their analgesic activity was carried out in the phenylquinone-induced writhing in mice (modified by I. C. Hendershot, J. Forsaith, J. Pharmacol. Exp. Ther. 125, 237–240 (1959)). Male NMRI mice weighing 25–30 g were used for this. Groups of 10 animals per substance dose received 0.3 ml/mouse of a 0.02% aqueous solution of phenylquinone (phenylbenzoquinone, Sigma, Deisenhofen; preparation of the solution with the addition of 5% ethanol and storage in a water bath at 45° C.) administered intraperitoneally 10 minutes after intravenous administration of the test substances. The animals were placed individually in observation cages. The number of pain-induced stretching movements (so-called writhing reactions=straightening of the body with stretching of the hind extremities) were counted by means of a push-button counter for 5–20 minutes after the administration of phenylquinone. Animals which received only physiological saline solution were also run as a control.
The substances were tested in the standard dose of 10 mg/kg. The inhibition of the writhing reactions by a substance was calculated according to the following equation: […]
The in-depth investigation of the compounds according to the invention for their analgesic activity was carried out in the phenylquinone-induced writhing in mice as described above.

Q: With `CN(C)C(c1ccccc1)c1cn(C)c2ccccc12` (centres unmarked) [Example 22, Dimethyl-[(1-methyl-1H-indol-3-yl)-phenylmethyl]-amine] as the molecule, how does the “Inhibition of the writhing reaction in %” value read?
A: Its value is 39%.

Q: Which “Inhibition of the writhing reaction in %” value does the source give for `Cn1cc(C(c2ccccc2)N2CCOCC2)c2ccccc21` (centres unmarked) [Example 23, 1-Methyl-3-(morpholin-4-yl-phenylmethyl)-1H-indole] here?
A: Its value is 75%.

Q: How did the “Inhibition of the writhing reaction in %” value turn out when `CN(C)C(c1ccccc1)c1c[nH]c2ccccc12` (centres unmarked) [Example 46, [(1H-Indol-3-yl)-phenylmethyl]-dimethylamine] was run?
A: The value was 41%.

Q: How did the “Inhibition of the writhing reaction in %” value turn out when `c1ccc(C(c2c[nH]c3ccccc23)N2CCCC2)cc1` (centres unmarked) [Example 47, 3-(Phenylpyrrolidin-1-yl-methyl)-1H-indole] was run?
A: The value was 57%.

Q: For `Cn1cc(C(c2ccccc2)N2CCCCC2)c2ccccc21` (centres unmarked) [Example 48, 1-Methyl-3-(phenylpiperidin-1-yl-methyl)-1H-indole], which “Inhibition of the writhing reaction in %” value is on record?
A: Its value is 6%.

Q: With `c1ccc(C(c2c[nH]c3ccccc23)N2CCCCC2)cc1` (centres unmarked) [Example 49, 3-(Phenylpiperidin-1-yl-methyl)-1H-indole] as the molecule, how does the “Inhibition of the writhing reaction in %” value read?
A: Its value is 82%.
